Values joined by “and” are separate entries in the source; they are usually repeats but may differ in a detail not shown here. Equal values may be shown once. Read-outs that look alike come from different tables or passages of the source.
Experiments:
[1] = tested on: ACH3 (acetylated histone H3); assay: Western blotting for ACH3 in hippocampus after administration; type: in vivo, mice
Method: Two and four hrs after its administration, the mice were sacrificed and hippocampi were extracted. […] Purity was verified through Nuclear Magnetic Resonance (NMR) spectroscopy. […] Hippocampus extraction was made at 3 different time points (0.5, 1 and 2 hrs post treatment). A western blotting for ACH3 was then performed.

Sirtuin 2 = target: T1, Sirtuin 2 (Homo sapiens, UniProt Q8IXJ6); assay: Sirtuin 2 activity assay (fluorescence); conditions: Compound 1 Log [nM] 4.0; Repeat1/Repeat2
T1 sequence (Q8IXJ6 1-389): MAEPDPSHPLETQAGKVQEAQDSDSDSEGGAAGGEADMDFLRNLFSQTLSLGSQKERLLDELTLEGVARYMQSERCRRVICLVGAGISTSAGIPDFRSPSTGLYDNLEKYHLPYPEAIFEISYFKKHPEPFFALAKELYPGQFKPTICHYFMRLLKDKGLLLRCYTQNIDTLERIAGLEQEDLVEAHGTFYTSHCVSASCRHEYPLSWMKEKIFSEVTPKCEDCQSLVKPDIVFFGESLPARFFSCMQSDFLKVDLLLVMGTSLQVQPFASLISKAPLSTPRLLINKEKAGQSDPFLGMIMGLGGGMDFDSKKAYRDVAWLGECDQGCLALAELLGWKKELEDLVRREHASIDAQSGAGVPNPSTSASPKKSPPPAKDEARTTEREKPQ

[2] = tested on: histone lysines H3K4, H3K9, H3K14, H4K5, H4K8, H4K12, H4K16, and H2B; assay: Histone acetylation in mouse hippocampus (WB analysis); type: in vivo; conditions: for acetylation of histone lysines (H3, H4, H2B) in hippocampus: 20 mg/Kg i.p., 30 min, FIG. 22
Method: The compound was i.p. administered at 20 mg/Kg, mice were sacrificed 30 min later, and hippocampi were removed and quickly frozen for WB analysis.

HDAC3/NCOR2 = HDAC3/NCOR2 (Homo sapiens, UniProt O15379); assay: HDAC3/NCOR2 activity assay (fluorescence); conditions: Repeat1/Repeat2
Chain of HDAC3/NCOR2 (O15379 whole entry): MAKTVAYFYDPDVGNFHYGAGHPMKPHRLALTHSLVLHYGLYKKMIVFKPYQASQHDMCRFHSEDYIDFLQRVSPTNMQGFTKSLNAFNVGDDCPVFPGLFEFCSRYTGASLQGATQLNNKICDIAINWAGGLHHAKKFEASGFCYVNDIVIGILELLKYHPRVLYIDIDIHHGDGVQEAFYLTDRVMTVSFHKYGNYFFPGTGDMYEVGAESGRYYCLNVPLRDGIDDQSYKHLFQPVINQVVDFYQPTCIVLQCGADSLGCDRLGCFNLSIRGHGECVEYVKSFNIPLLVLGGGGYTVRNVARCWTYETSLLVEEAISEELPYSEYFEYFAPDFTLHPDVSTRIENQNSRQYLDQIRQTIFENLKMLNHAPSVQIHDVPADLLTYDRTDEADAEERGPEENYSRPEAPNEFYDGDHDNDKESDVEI
Chain of HDAC3/NCOR2 (Q9Y618 395-489 partner limits assumed): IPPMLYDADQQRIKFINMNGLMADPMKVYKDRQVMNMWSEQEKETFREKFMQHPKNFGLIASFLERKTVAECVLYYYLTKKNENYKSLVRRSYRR

human GCN5 = human GCN5 (Homo sapiens, UniProt Q92830); assay: GCN5 activation, in vitro assay; type: biochemical
Chain of human GCN5 (Q92830 whole entry): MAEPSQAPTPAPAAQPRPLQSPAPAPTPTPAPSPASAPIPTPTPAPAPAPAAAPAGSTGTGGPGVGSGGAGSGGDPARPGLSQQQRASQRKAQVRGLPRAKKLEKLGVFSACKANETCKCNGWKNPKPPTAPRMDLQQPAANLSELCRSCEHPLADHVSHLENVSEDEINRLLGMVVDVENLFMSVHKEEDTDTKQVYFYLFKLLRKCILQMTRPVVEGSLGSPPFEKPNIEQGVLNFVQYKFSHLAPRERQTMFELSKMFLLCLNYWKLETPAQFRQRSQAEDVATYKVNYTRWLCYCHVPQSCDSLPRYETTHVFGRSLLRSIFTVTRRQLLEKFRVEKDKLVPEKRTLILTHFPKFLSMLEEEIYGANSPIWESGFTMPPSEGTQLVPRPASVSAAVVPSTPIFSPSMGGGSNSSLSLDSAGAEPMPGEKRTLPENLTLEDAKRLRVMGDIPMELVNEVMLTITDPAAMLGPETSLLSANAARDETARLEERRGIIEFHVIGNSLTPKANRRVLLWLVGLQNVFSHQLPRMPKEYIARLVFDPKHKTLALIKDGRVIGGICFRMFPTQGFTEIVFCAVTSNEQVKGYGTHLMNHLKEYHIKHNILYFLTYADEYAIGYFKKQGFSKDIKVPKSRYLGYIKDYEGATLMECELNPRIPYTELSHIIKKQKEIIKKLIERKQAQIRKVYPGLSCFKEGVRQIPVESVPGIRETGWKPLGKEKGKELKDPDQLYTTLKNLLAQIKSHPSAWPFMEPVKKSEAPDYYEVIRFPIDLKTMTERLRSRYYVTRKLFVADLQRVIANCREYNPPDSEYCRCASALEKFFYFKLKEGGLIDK

[3] = tested on: HDAC 1, 3, 5, 6, 7, 8, 10, 11, and sirt1-2; assay: HDAC activity assays, summary over the panel; type: biochemical; conditions: HDAC 1, 3, 5, 6, 7, 8, 10, 11, sirt1-2
Method: Assay Conditions. A series of dilution of the test compounds were prepared with 10% DMSO in assay buffer and 5 μl of the dilution was added to a 50 μl reaction so that the final concentration of DMSO is 1% in all of reactions. All of the enzymatic reactions were conducted in duplicate at 37° C. for 30 minutes except of HDAC11 at room temperature for 3 hours. The 50 μl reaction mixture contains HDAC assay buffer, 5 μg BSA, an HDAC substrate, an HDAC enzyme and a test compound. After enzymatic reactions, 50 μl of HDAC Developer was added to each well and the plate was incubated at room temperature for an additional 20 minutes. Fluorescence intensity was measured at an excitation of 360 nm and an emission of 460 nm using a Tecan Infinite M1000 microplate reader.
Data Analysis. HDAC activity assays were performed in duplicates at each concentration. The fluorescent intensity data were analyzed using the computer software, Graphpad Prism. In the absence of the compound, the fluorescent intensity (Ft) in each data set was defined as 100% activity. In the absence of HDAC, the fluorescent intensity (Fb) in each data set was defined as 0% activity. […] The percent activity in the presence of each compound was calculated according to the following equation: % activity=(F−Fb)/(Ft−Fb), where F=the fluorescent intensity in the presence of the compound. […]

[4] = Pharmacokinetics and BBB penetration after i.p. and i.v. administration (LC-MS/MS); type: in vivo, BALB/c mice; conditions: 20 mg/kg; for Kp: brain/plasma
Method: After i.p. and i.v. administration at 20 mg/kg to BALB/c mice, plasma and brain concentrations were determined by LC-MS/MS.

[5] = tested on: mouse model of Alzheimer's disease; assay: Memory deficits in a mouse model of Alzheimer's disease; type: in vivo

CCOc1cccc(OCCN(C)C)c1C(=O)Nc1ccc(Cl)c(C(F)(F)F)c1 [Compound 1]
ACH3 in hippocampus ([1]; 50 mg/kg i.p., 2 and 4 hrs, FIG. 1): increase ACH3 | ACH3 levels in hippocampus ([1]; 5, 10, 20 mg/Kg i.p. in saline, 0.5, 1, 2 hrs, except 1 hr-10 mg/kg, FIG. 2): dramatically increased ACH3 levels | % Activity (Sirtuin 2) (Sirtuin 2): 97.71% | acetylation of histone lysines (H3, H4, H2B) in hippocampus [2]: increased acetylation of histone lysines | acetylation of histone lysines (H3, H4, H2B) in hippocampus ([2]; listed as YF2): increased specific acetylation of H3, H4, and H2B | crossing of the BBB ([2]; i.p., western blot, FIG. 21): crosses the BBB | histone 3 acetylation levels of the hippocampus ([2]; i.p., western blot, FIG. 21): increases histone 3 acetylation levels | % Activity (HDAC3/NCOR2) (HDAC3/NCOR2; Compound 1 Log [nM] 0.5): 102.35% and 89.76% | % Activity (HDAC3/NCOR2) (HDAC3/NCOR2; Compound 1 Log [nM] 1.0): 98.01% and 97.56% | % Activity (HDAC3/NCOR2) (HDAC3/NCOR2; Compound 1 Log [nM] 1.5): 101.44% and 96.12% | % Activity (HDAC3/NCOR2) (HDAC3/NCOR2; Compound 1 Log [nM] 2.0): 102.25% and 94.61% | % Activity (HDAC3/NCOR2) (HDAC3/NCOR2; Compound 1 Log [nM] 2.5): 101.07% and 95.51% | % Activity (HDAC3/NCOR2) (HDAC3/NCOR2; Compound 1 Log [nM] 3.0): 99.62% and 94.38% | % Activity (HDAC3/NCOR2) (HDAC3/NCOR2; Compound 1 Log [nM] 3.5): 97.14% and 94.27% | % Activity (HDAC3/NCOR2) (HDAC3/NCOR2; Compound 1 Log [nM] 4.0): 108.31% and 94.90% | % Activity (HDAC3/NCOR2) (HDAC3/NCOR2; Compound 1 Log [nM] 4.5): 87.66% and 88.97% | % Activity (HDAC3/NCOR2) (HDAC3/NCOR2; Compound 1 Log [nM] 5.3): 89.40% and 102.23% | EC50 (human GCN5): 49.3 µM and 65.2 µM | HDAC inhibition (in words) [3]: does not inhibit HDACs | HDAC inhibition (in words) ([3]; listed as compound 1): did not interfere with p300 and HDAC activity | Kp ([4]; BALB/c, mouse, ip, IP, read-out: AUC0-t ratio brain/plasma): 8.2 | Kp ([4]; BALB/c, mouse, ip, IP, read-out: AUC0-∞ ratio brain/plasma): 8.1 | Kp ([4]; BALB/c, mouse, ip, IP, read-out: Cmax ratio brain/plasma): 5.8 | Kp ([4]; BALB/c, mouse, iv, IV, read-out: AUC0-t ratio brain/plasma): 10.8 | Kp ([4]; BALB/c, mouse, iv, IV, read-out: AUC0-∞ ratio brain/plasma): 11.2 | Kp ([4]; BALB/c, mouse, iv, IV, read-out: Cmax ratio brain/plasma): 13.1 | Tmax ([4]; BALB/c, mouse, intraperitoneal, brain, read-out: Tmax in the brain (converted)): 15 min | half-life ([4]; BALB/c, mouse, ip, i.p., brain and plasma, read-out: elimination half-lives in the brain and plasma): ~40 min | Cmax ([4]; BALB/c, mouse, IP, brain): 4880 ng/g | MRT ([4]; BALB/c, mouse, IP, brain): 61.8 min | Tmax ([4]; BALB/c, mouse, IP, brain, read-out: Tmax): 15 min | half-life ([4]; BALB/c, mouse, IP, brain, read-out: t½ (converted)): 37.8 min | AUC(0-inf) ([4]; BALB/c, mouse, IP, plasma): 0.813 µg·h/mL | Cmax ([4]; BALB/c, mouse, IP, plasma): 0.843 µg/mL | MRT ([4]; BALB/c, mouse, IP, plasma): 51 min | AUC0-t ([4]; BALB/c, mouse, IP, plasma, read-out: AUC0-t): 0.806 µg·h/mL | Tmax ([4]; BALB/c, mouse, IP, plasma, read-out: Tmax): 15 min | half-life ([4]; BALB/c, mouse, IP, plasma, read-out: t½ (converted)): 36 min | Cmax ([4]; BALB/c, mouse, IV, brain): 27900 ng/g | MRT ([4]; BALB/c, mouse, IV, brain): 44.4 min | Tmax ([4]; BALB/c, mouse, IV, brain, read-out: Tmax): 7.5 min | half-life ([4]; BALB/c, mouse, IV, brain, read-out: t½ (converted)): 37.8 min | AUC(0-inf) ([4]; BALB/c, mouse, IV, plasma): 2.02 µg·h/mL | Cmax ([4]; BALB/c, mouse, IV, plasma): 2.13 µg/mL | MRT ([4]; BALB/c, mouse, IV, plasma): 50.4 min | AUC0-t ([4]; BALB/c, mouse, IV, plasma, read-out: AUC0-t): 1.97 µg·h/mL | Tmax ([4]; BALB/c, mouse, IV, plasma, read-out: Tmax): 7.5 min | half-life ([4]; BALB/c, mouse, IV, plasma, read-out: t½ (converted)): 42 min | AUC0-t ([4]; IP, brain): 6493 ng·h/g | AUC0-∞ ([4]; IP, brain): 6564 ng·h/g | F ([4]; IP, brain): 29.2% | F ([4]; IP, plasma): 41.0% | AUC0-t ([4]; IV, brain): 22222 ng·h/g | AUC0-∞ ([4]; IV, brain): 22581 ng·h/g | amount in the brain compared with plasma ([4]; i.p. and i.v.): higher than that in the plasma | memory deficits [5]: ameliorate memory deficits

Source: patent US9809532B2, “Uses of histone acetyltransferase activators” (THE TRUSTEES OF COLUMBIA UNIVERSITY IN THE CITY OF NEW YORK, priority 2011, dated 2017)
